{"source": "patent US20220096436A1", "about": "“COMBINATION PRODUCT FOR THE TREATMENT OF CANCER” (Debiopharm International S.A., priority 2019, published 2022)", "key": {"[1]": {"details": "nivolumab 3-10 mg/kg q2w monotherapy across tumor types, n=2,578; cited from earlier work"}, "cancers": {"tested_on": "cancers", "details": "nivolumab monotherapy, 27 trials, n=5,551, cited from earlier work"}, "B16F10 melanoma tumors": {"tested_on": "B16F10 melanoma tumors", "experiment": "Anti-tumor efficacy in subcutaneous B16F10 mouse melanoma syngeneic model", "assay_type": "in vivo, C57BL/6 mice", "details": "for TGI: vs vehicle; for mean tumor volume: vehicle group 1529 mm^3", "protocol": "C57BL/6 mice were s.c. injected with 2×10^5 B16F10 tumor cells (see, for example, Bobek et al., 2010. Anticancer Res. 30(12):4799-803) and treatments started at a mean group tumor size of 94 mm^3 (n=8/group). Debio 1143 at 100 and 200 mg/kg p.o. was given on 5 days/week in combination with 10 mg/kg i.p. anti-PD1 twice weekly and compared to treatment with vehicle plus isotype antibody. In addition, the 100 mg/kg dose given twice weekly in combination with anti-PD1 at 10 mg/kg i.p. twice weekly was tested."}, "TS/A breast cancer": {"tested_on": "TS/A breast cancer", "experiment": "Therapeutic efficacy in TS/A breast cancer mouse syngeneic model", "assay_type": "in vivo", "details": "Debio 1143 combined with an anti-CTLA4 antibody", "protocol": "(§1) The therapeutic efficacy of Debio 1143 combined with an anti-CTLA4 antibody was tested in a TS/A breast cancer mouse syngeneic model. Further, the therapeutic efficacy of Debio 1143 combined with an IDO inhibitor (INCB024360) was tested in a CT-26 colorectal cancer mouse syngeneic model."}, "CT-26 colorectal cancer": {"tested_on": "CT-26 colorectal cancer", "experiment": "Therapeutic efficacy in CT-26 colorectal cancer mouse syngeneic model", "assay_type": "in vivo", "details": "Debio 1143 combined with IDO inhibitor INCB024360", "protocol": "as §1"}}}
{"compound": "nivolumab: fully human immunoglobulin G4 (IgG4) monoclonal antibody, which binds to the PD-1 receptor and blocks its interaction with PD-L1 and PD-L2", "values": [{"measurement": "adverse reaction frequency: diarrhea", "setting": "[1]", "result": 13, "unit": "%"}, {"measurement": "adverse reaction frequency: fatigue", "setting": "[1]", "result": 30, "unit": "%"}, {"measurement": "adverse reaction frequency: pruritus", "setting": "[1]", "result": 13, "unit": "%"}, {"measurement": "adverse reaction frequency: rash", "setting": "[1]", "result": 17, "unit": "%"}, {"measurement": "pooled objective response rate (ORR)", "setting": "cancers; 95% CI 21-31", "result": 26, "unit": "%"}, {"measurement": "6-month PFS rate", "setting": "cancers; 95% CI 34-46", "result": 40, "unit": "%"}, {"measurement": "1-year OS rate", "setting": "cancers; 95% CI 43-62", "result": 52, "unit": "%"}]}
{"compound": "CN[C@@H](C)C(=O)N[C@H]1CN(C(=O)CC(C)C)CC[C@H]2CC[C@@H](C(=O)NC(c3ccccc3)c3ccccc3)N2C1=O", "note": "[Debio 1143, (5S,8S,10aR)-N-benzhydryl-5-((S)-2-(methylamino)propanamido)-3-(3-methylbutanoyl)-6-oxodecahydropyrrolo[1,2-a][1,5]diazocine-8-carboxamide]", "values": [{"measurement": "TGI", "setting": "B16F10 melanoma tumors; day 19, Debio 1143 100 mg/kg p.o. QD1-5 combined with anti-PD-1 10 mg/kg, P=0.155", "result": 31, "unit": "%"}, {"measurement": "mean tumor volume", "setting": "B16F10 melanoma tumors; day 19, Debio 1143 200 mg/kg p.o. 5 days/week in combination with 10 mg/kg anti-PD-1", "result": 594, "unit": "mm^3"}, {"measurement": "TGI", "setting": "B16F10 melanoma tumors; day 19, Debio 1143 200 mg/kg p.o. 5 days/week in combination with 10 mg/kg anti-PD-1, P=0.005", "result": 61, "unit": "%"}, {"measurement": "mean tumor volume", "setting": "B16F10 melanoma tumors; day 19, bi-weekly Debio 1143 100 mg/kg in combination with anti-PD-1 10 mg/kg", "result": 1396, "unit": "mm^3"}, {"measurement": "TGI", "setting": "B16F10 melanoma tumors; day 19, bi-weekly Debio 1143 100 mg/kg in combination with anti-PD-1 10 mg/kg, P=0.757", "result": 9, "unit": "%"}, {"measurement": "mean tumor volume", "setting": "B16F10 melanoma tumors; day 19 from tumor inoculation, Debio 1143 100 mg/kg p.o. QD1-5 (5 days/week) combined with anti-PD-1 10 mg/kg i.p. twice weekly", "result": 1049, "unit": "mm^3"}, {"measurement": "combination therapy compared to the respective monotherapies", "setting": "TS/A breast cancer", "result": "did not lead to a statistically significant improvement"}, {"measurement": "combination therapy compared to the respective monotherapies", "setting": "CT-26 colorectal cancer", "result": "did not lead to a statistically significant improvement"}]}
